How the values were obtained:
[1] = tested on: Taxol-sensitive HCT8 cancer cells; test: MTT cytotoxicity, taxol-sensitive HCT8; assay type: cell-based; details: 72 h
Procedure: (§1) All prepared cobalt-polypyridyl complexes were dissolved in DMSO at a final concentration of 50 mmol/L and stored at −20° C. before use. Cytotoxicity was assessed by using the 3-(4,5-dimethylthiazol-2-yl)-2,5-diphenyltetrazolium bromide (MTT) (5.0 mg/ml) assay as previously described (Wong, V. K. et al., Cell Death Dis, 2013, 4, e720). Briefly, 4×10^3 cells per well were seeded in 96-well plates before drug treatments. After overnight culture, the cells were then exposed to different concentrations of selected compounds (0.039-100 μmol/L) for 72 h. Cells without drug treatment were used as control. Subsequently, MTT (10 μL) solution was added to each well and incubated at 37° C. for 4 h followed by the addition of 100 μL solubilization buffer (10% SDS in 0.01 mol/L HCl) and overnight incubation. A570 nm was then determined in each well on the next day. The percentage of cell viability was calculated using the following formula: Cell viability (%)=Atreated/Acontrol×100. Data were obtained from three independent experiments.

[2] = tested on: cisplatin-resistant SGC-7901 gastric cancer cells; test: MTT cytotoxicity, cisplatin-resistant SGC-7901; assay type: cell-based; details: for IC50: SGC-7901, MTT, 72 h; for Resistant Factor: SGC-7901, cisplatin-resistant over cisplatin-sensitive
Procedure: as §1
(§2) All cells were obtained from the American Type Culture Collection (Rockville, Md., USA) unless otherwise specified. Immortalized wild-type and Atg7-deficient mouse embryonic fibroblasts (MEFs) were provided by Professor Masaaki Komatsu (Juntendo University, School of Medicine, Japan). Taxol-resistant types of A549, MCF-7, HCT-8 cancer cells, cisplatin-resistant SGC7901 cancer cells were purchased from KeyGEN BioTECH, China.

[3] = tested on: cisplatin-sensitive SGC-7901 gastric cancer cells; test: MTT cytotoxicity, cisplatin-sensitive SGC-7901; assay type: cell-based; details: SGC-7901, MTT, 72 h
Procedure: as §1

[4] = tested on: LO2 (normal human hepatocytes); test: MTT cytotoxicity assay, LO2; assay type: cell-based; details: 72 h
Procedure: as §1, with “experiments. Cells include HeLa cells (cervical cancer), MCF-7 (breast cancer), H1299, H1975, A549 and LLC-1 (lung cancer), HepG2 and Hep3B (liver cancer) and LO2 (normal human hepatocytes).” for “experiments.”

[5] = tested on: HCT116 p53^−/− colon cancer cells; test: MTT cytotoxicity, HCT116 p53-/-; assay type: cell-based, human; details: for Resistant Factor: HCT116 p53^−/− over HCT116 p53^+/+; for IC50: MTT, 72 h
Procedure: as §1
(§3) Cisplatin-sensitive or -resistant A2780, OV2008 and C13 cancer cells were provided by Prof. Benjamin Tsang (Department of Obstetrics and Gynecology and Department of Cellular and Molecular Medicine, University of Ottawa, Canada). HCT116 p53^+/+ and p53^−/− isogenic human colon cancer cells were provided by Professor Bert Vogelstein (Ludwig Center at Johns Hopkins, Howard Hughes Medical Institute, USA). All media were supplemented with 10% fetal bovine serum and the antibiotics penicillin (50 U/ml) and streptomycin (50 μg/ml; Invitrogen, Paisley, Scotland, UK). All cell cultures were incubated at 37° C. in a 5% humidified CO2 incubator.

[6] = tested on: Taxol-resistant MCF-7 cancer cells; test: MTT cytotoxicity, taxol-resistant MCF-7; assay type: cell-based; details: for IC50: MCF-7, MTT, 72 h; for Resistant Factor: MCF-7, IC50 taxol-resistant over IC50 taxol-sensitive
Procedure: as §1, §2

MCF-7 (breast cancer) = test: MTT cytotoxicity assay, MCF-7; assay type: cell-based; details: MCF-7, MTT, 72 h
Procedure: as §1, with “experiments. Cells include HeLa cells (cervical cancer), MCF-7 (breast cancer), H1299, H1975, A549 and LLC-1 (lung cancer), HepG2 and Hep3B (liver cancer) and LO2 (normal human hepatocytes).” for “experiments.”

[7] = tested on: Taxol-resistant HCT8 cancer cells; test: MTT cytotoxicity, taxol-resistant HCT8; assay type: cell-based; details: for IC50: HCT8, MTT, 72 h; for Resistant Factor: HCT8, IC50 taxol-resistant over IC50 taxol-sensitive
Procedure: as §1, §2

[8] = tested on: OV2008/C13 cervical cancer cells; test: MTT cytotoxicity, OV2008/C13 (cisplatin-resistant); assay type: cell-based; details: for IC50: OV2008/C13, MTT, 72 h; for Resistant Factor: OV2008/C13 over OV2008
Procedure: as §1, §3

[9] = tested on: cisplatin-resistant A2780 ovarian cancer cells; test: MTT cytotoxicity, cisplatin-resistant A2780; assay type: cell-based; details: for IC50: A2780, MTT, 72 h; for Resistant Factor: A2780, cisplatin-resistant over cisplatin-sensitive
Procedure: as §1, §3

H1975 (lung cancer) = test: MTT cytotoxicity assay, H1975; assay type: cell-based; details: 72 h
Procedure: as §1, with “experiments. Cells include HeLa cells (cervical cancer), MCF-7 (breast cancer), H1299, H1975, A549 and LLC-1 (lung cancer), HepG2 and Hep3B (liver cancer) and LO2 (normal human hepatocytes).” for “experiments.”

LLC-1 (lung cancer) = test: MTT cytotoxicity assay, LLC-1; assay type: cell-based; details: LLC-1, MTT, 72 h
Procedure: as §1, with “experiments. Cells include HeLa cells (cervical cancer), MCF-7 (breast cancer), H1299, H1975, A549 and LLC-1 (lung cancer), HepG2 and Hep3B (liver cancer) and LO2 (normal human hepatocytes).” for “experiments.”

[10] = tested on: HCT116 p53^+/+ colon cancer cells; test: MTT cytotoxicity, HCT116 p53+/+; assay type: cell-based, human; details: 72 h
Procedure: as §1, §3

H1299 (lung cancer) = test: MTT cytotoxicity assay, H1299; assay type: cell-based, human; details: 72 h
Procedure: as §1, with “experiments. Cells include HeLa cells (cervical cancer), MCF-7 (breast cancer), H1299, H1975, A549 and LLC-1 (lung cancer), HepG2 and Hep3B (liver cancer) and LO2 (normal human hepatocytes).” for “experiments.”

[11] = tested on: Taxol-resistant A549 cancer cells; test: MTT cytotoxicity, taxol-resistant A549; assay type: cell-based; details: for IC50: A549, MTT, 72 h; for Resistant Factor: A549, IC50 taxol-resistant over IC50 taxol-sensitive
Procedure: as §1, §2

Hep 3B (liver cancer) = test: MTT cytotoxicity assay, Hep3B; assay type: cell-based; details: 72 h
Procedure: as §1, with “experiments. Cells include HeLa cells (cervical cancer), MCF-7 (breast cancer), H1299, H1975, A549 and LLC-1 (lung cancer), HepG2 and Hep3B (liver cancer) and LO2 (normal human hepatocytes).” for “experiments.”

HepG2 (liver cancer) = test: MTT cytotoxicity assay, HepG2; assay type: cell-based; details: 72 h
Procedure: as §1, with “experiments. Cells include HeLa cells (cervical cancer), MCF-7 (breast cancer), H1299, H1975, A549 and LLC-1 (lung cancer), HepG2 and Hep3B (liver cancer) and LO2 (normal human hepatocytes).” for “experiments.”

[12] = tested on: Taxol-sensitive MCF-7 cancer cells; test: MTT cytotoxicity, taxol-sensitive MCF-7; assay type: cell-based; details: MCF-7, MTT, 72 h
Procedure: as §1

A549 (lung cancer) = test: MTT cytotoxicity assay, A549; assay type: cell-based; details: 72 h
Procedure: as §1, with “experiments. Cells include HeLa cells (cervical cancer), MCF-7 (breast cancer), H1299, H1975, A549 and LLC-1 (lung cancer), HepG2 and Hep3B (liver cancer) and LO2 (normal human hepatocytes).” for “experiments.”

[13] = tested on: Taxol-sensitive A549 cancer cells; test: MTT cytotoxicity, taxol-sensitive A549; assay type: cell-based; details: 72 h
Procedure: as §1

[14] = tested on: HeLa cells (cervical cancer); test: MTT cytotoxicity assay, HeLa; assay type: cell-based; details: 72 h
Procedure: as §1, with “experiments. Cells include HeLa cells (cervical cancer), MCF-7 (breast cancer), H1299, H1975, A549 and LLC-1 (lung cancer), HepG2 and Hep3B (liver cancer) and LO2 (normal human hepatocytes).” for “experiments.”

[15] = tested on: cisplatin-sensitive A2780 ovarian cancer cells; test: MTT cytotoxicity, cisplatin-sensitive A2780; assay type: cell-based; details: 72 h
Procedure: as §1, §3

[16] = tested on: OV2008 cervical cancer cells; test: MTT cytotoxicity, OV2008 (cisplatin-sensitive); assay type: cell-based; details: 72 h
Procedure: as §1, §3

Compound: COc1ccnc(-c2cc(OC)ccn2)c1.COc1ccnc(-c2cc(OC)ccn2)c1.COc1ccnc(-c2cc(OC)ccn2)c1.F[P-](F)(F)(F)(F)F.F[P-](F)(F)(F)(F)F.F[P-](F)(F)(F)(F)F.[Co+3] [complex (VII), [Co^III(4,4′-(OMe)2-Bpy)3](PF6)3]
- IC50 [1]: 4.3 µM
- IC50 [2]: 20.7 µM
- Resistant Factor [2]: 0.96
- IC50 [3]: 21.6 µM
- IC50 [4]: 20.6 µM
- Resistant Factor [5]: 0.53
- IC50 [5]: 41.3 µM
- IC50 [6]: 6.28 µM
- Resistant Factor [6]: 0.66
- IC50 (MCF-7 (breast cancer)): 10.8 µM
- IC50 [7]: 1.04 µM
- Resistant Factor [7]: 0.24
- IC50 [8]: 20.3 µM
- Resistant Factor [8]: 1.45
- IC50 [9]: 27 µM
- Resistant Factor [9]: 1.13
- IC50 (H1975 (lung cancer)): 9.31 µM
- IC50 (LLC-1 (lung cancer)): 8.71 µM
- IC50 [10]: 77.8 µM
- IC50 (H1299 (lung cancer)): 8.71 µM
- IC50 [11]: 2.85 µM
- Resistant Factor [11]: 0.19
- IC50 (Hep 3B (liver cancer)): 5.33 µM
- IC50 (HepG2 (liver cancer)): 15.4 µM
- IC50 [12]: 9.45 µM
- IC50 (A549 (lung cancer)): 18.6 µM
- IC50 [13]: 15 µM
- IC50 [14]: 12.8 µM
- IC50 [15]: 24 µM
- IC50 [16]: 14 µM

Compound: F[P-](F)(F)(F)(F)F.F[P-](F)(F)(F)(F)F.[Co+2].c1ccc(-c2ccccn2)nc1.c1ccc(-c2ccccn2)nc1.c1ccc(-c2ccccn2)nc1 [complex (V), [Co^II(N^N)3](PF6)2]
- IC50 [1]: 11.4 µM
- IC50 [2]: 29.9 µM
- Resistant Factor [2]: 1.00
- IC50 [3]: 29.9 µM
- IC50 [4]: 33.6 µM
- Resistant Factor [5]: 0.85
- IC50 [5]: 29.1 µM
- IC50 [6]: 16.8 µM
- Resistant Factor [6]: 1.25
- IC50 (MCF-7 (breast cancer)): 15.8 µM
- IC50 [7]: 7.78 µM
- Resistant Factor [7]: 0.68
- IC50 [8]: 14.9 µM
- Resistant Factor [8]: 0.79
- IC50 [9]: 31.6 µM
- Resistant Factor [9]: 1.10
- IC50 (H1975 (lung cancer)): 17 µM
- IC50 (LLC-1 (lung cancer)): 17.2 µM
- IC50 [10]: 34.3 µM
- IC50 (H1299 (lung cancer)): 9.4 µM
- IC50 [11]: 7.85 µM
- Resistant Factor [11]: 0.26
- IC50 (Hep 3B (liver cancer)): 6.92 µM
- IC50 (HepG2 (liver cancer)): 13.3 µM
- IC50 [12]: 13.4 µM
- IC50 (A549 (lung cancer)): 26.3 µM
- IC50 [13]: 29.9 µM
- IC50 [14]: 24.2 µM
- IC50 [15]: 28.8 µM
- IC50 [16]: 18.9 µM

Source: patent US9895338B1, “Cobalt-polypyridyl complex for treatment of cancer, a pharmaceutical composition and a kit comprising it” (Macau University of Science and Technology, priority 2016, dated 2018)
